In PMC4057422, “Apoptotic Death of Prostate Cancer Cells by a Gonadotropin-Releasing Hormone-II Antagonist” (PLoS ONE, 2014):
pIC50: −log10 of the molar value. Where two headings read alike, the source gives them in different places. Square brackets hold non-standard residues; d marks the D form. Ends that are not written are not given here. Peptide text beside a SMILES is read from it. dPhe(4-Cl) = N[C@H](Cc1ccc(Cl)cc1)C(=O)O; d2Nal = N[C@H](Cc1ccc2ccccc2c1)C(=O)O; dCit = NC(=O)NCCC[C@@H](N)C(=O)O; d3Pal = N[C@H](Cc1cccnc1)C(=O)O

Key:
PC3 cells [1] = settings: FITC-conjugated form, prostate cancer cells; ref [28]; cited from earlier work
Description: In previous reports, we and other groups observed that radiolabeled GnRH-II bound to prostate cancer cells through interaction with an approximately 80-kDa protein whose identity was designated as glucose-regulated protein 75 (GRP75) based on liquid chromatography-electrospray ionization-tandem mass spectrometry, [28], [29]. […] Since GRP75 is found predominantly in mitochondria, the final destination of SN09-2 may not be the cell surface. To explore the subcellular location of the antag ...

DU145 cells = test: Cell viability assay, DU145; type: cell-based, human; settings: 10 µM, 5% serum, 3 days
Description: (§1) Cells were seeded in 12-well plates in triplicate (1×10^4 cells/well). After 24 h, cells were treated with the indicated concentrations of GnRH-II antagonists solubilized in 0.1% DMSO every 24 h for the indicated number of days. Then, cells were washed with phosphate-buffered saline (PBS), dissociated with trypsin/EDTA, and re-suspended in 500 µl complete growth media. Trypan blue (0.4%) dye-excluding cells were counted under an inverted microscope (Olympus, Tokyo, Japan).

PC3 cells [2] = type: cell-based, human; settings: for growth inhibition of PC3 cells: 10 µM
Description: as §1

[3] = Dissolution in solvents / at the injection site; type: physicochemical
[4] = target: T1, green monkey GnRHR-II (gmGnRHR-II) (Chlorocebus aethiops, UniProt Q95MH6); test: Reporter gene assay (SRE-luc), antagonism of GnRH-II at gmGnRHR-II; type: cell-based
T1 construct: expressed in transfected cells; host or cells: CV-1 cells
T1 sequence (Q95MH6 1-379): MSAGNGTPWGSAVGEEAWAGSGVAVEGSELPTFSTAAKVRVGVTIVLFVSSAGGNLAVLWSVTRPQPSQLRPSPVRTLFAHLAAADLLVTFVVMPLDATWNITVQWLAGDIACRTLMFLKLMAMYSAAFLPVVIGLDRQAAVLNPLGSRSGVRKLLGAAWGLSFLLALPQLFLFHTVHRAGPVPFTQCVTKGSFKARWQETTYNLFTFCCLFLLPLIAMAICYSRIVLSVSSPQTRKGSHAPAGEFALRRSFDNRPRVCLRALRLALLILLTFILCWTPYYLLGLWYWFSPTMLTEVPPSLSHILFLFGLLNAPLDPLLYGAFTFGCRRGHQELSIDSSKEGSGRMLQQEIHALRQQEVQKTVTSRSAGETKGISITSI
Description: (§2) CV-1 Cells were culture overnight in 24-well plates and subsequently transfected with liposome complex containing pGL3/SRE-luc plasmids with bull frog GnRHR-II (bfGnRHR-II) or green monkey GnRHR-II (gmGnRHR-II). Another 48 h later, cells treated with GnRH-II (1 nM for bfGnRHR-II, 10 nM gmGnRHR-II) and different concentration of SN09-2 or Trp-1 for 6 h were washed with PBS and solublized with lysis buffer. Luciferase activity of cell extracts was determined using the standard luciferase assay system from BioTek Instrument, Inc. (Winooski, VT). To determine transfection efficiency, luciferase activities were normalized to the β-gal activity. All data are calculated from at least three independent experiments normalized to untreated groups.

[5] = Tolerability in nude mice (histology, blood chemistry, injection site); type: in vivo, male athymic nude mice (BALB/c-nu)
Description: Six-week-old male athymic nude mice (BALB/c-nu) were obtained from Harlan (Houston, TX). Mice were housed under specific pathogen-free conditions in an individually ventilated caging system. All experimental procedures were performed after receiving approval from the Institutional Animal Care and Use Committee of Clinical Research Institute in Seoul National University Hospital. PC3 cells (6×10^6) were injected into the right flank of the mice. Ten days after cell injection, tumors with volumes of around 20–25 mm^3 developed in most mice; tumor volumes were measured every day. Tumor volumes were determined by two perpendicular dimensions [length (L) and width (W)] and the height (H), measured using Vernier calipers (the formula is V = (π/6) × (W×L×H). From this time, SN09-2 (acetic acid form) dissolved in 5% N,N-dimethylacetamide (DMA), 10% glycerol, and 85% distilled water which is biocompatible solvent were subcutaneously injected into the mice for 25 consecutive days. The tumor size in each mouse was measured every day. Six to seven mice were used for each experimental group.

prostate cancer cells [6] = settings: cited from earlier work; for displacement of radiolabeled GnRH-II binding: various human prostate cancer cells, ref [27]
Description: GnRH-II is likely to function on prostate cancer cells by interacting with unknown proteins, based on our previous observation that radiolabeled GnRH-II was able to bind various human prostate cancer cells.

human T cells = settings: ref [20]; cited from earlier work
Description: In most vertebrates, the other type of GnRH, called GnRH-II, is identified, which is structurally conserved in evolution from fish to mammals [12]–[14]. GnRH-II is expressed not only in the brain but also in peripheral reproductive and immune tissues. This wide expression pattern may confer a variety of physiological functions on the peptide. Similar to GnRH-I, GnRH-II is able to regulate reproduction in females by stimulating the secretion of LH and FSH [16], [17].

ovarian cancer cells = settings: cited from earlier work
Description: GnRH-II is likely to function on prostate cancer cells by interacting with unknown proteins, based on our previous observation that radiolabeled GnRH-II was able to bind various human prostate cancer cells. […] Because of the sequence similarity between GnRH-I and GnRH-II, GnRH-II and its antagonists are considered to exert similar effects on these types of cancer, although its receptor has not been identified in human and its action mechanisms have not been well elucidated. In some reports, GnRH-II has been shown ...

PC3 xenograft tumor = settings: cited from earlier work; for growth of tumor formed by implanted PC3 cells: previous studies, ref [27], [28]
Description: PC3 cells were implanted into the flanks of nude mice. After tumor formation, SN09-2 was injected into the mice at different concentrations for 25 consecutive days. […] In the group treated with 0.1 mg SN09-2, tumor volumes were reduced by 27%, compared with the vehicle-treated group (Fig. 7A, B). […] The di ... || Both GnRH-I agonists and antagonists are able to inhibit the growth of cancer cells in sex hormone-regulated tissues including ovarian cancer and prostate cancer, by directly stimulating cell death pathways as well as by decreasing gonadotropin and sex hormone levels, [32], [33]. Because of the sequence similarity between GnRH-I and GnRH-II, GnRH-II and its antagonists are considered to exert similar effects on these types of cancer, although its receptor has not been identified in human and its action mechanisms have not been well elucidated. In some reports, GnRH-II has been shown ...

caspase-3 (PC3 cells) = settings: ref [28], cited from earlier work
Description: Next, we examined caspase-3 activation by SN09-2. […] We also investigated caspase-3 cleavage in LNCaP and DU145 cells. […] Immunocytochemistry for actively cleaved caspase- ... || Mitochondrial proteins play pivotal roles in organelle-specific functions such as energy conversion, calcium hemeostasis, ROS generation, and electron transport, [40]. The disturbance of such mitochondrial functions is a critical step towards cell death through the activation of either apoptotic or autophagic pathways, [42]. GRP75 a mitochondrial chaperon is an essential protein for mitochondria biogenesis by refolding and sorting mitochondrial proteins. Elevation of GRP75 is easily observed in various cancer cells, while knockdown of the protein induces mitochondrial dysfunc ...

cytochrome c (PC3 cells) = settings: ref [28]; cited from earlier work
Description: (§3) Mitochondrial proteins play pivotal roles in organelle-specific functions such as energy conversion, calcium hemeostasis, ROS generation, and electron transport, [40]. The disturbance of such mitochondrial functions is a critical step towards cell death through the activation of either apoptotic or autophagic pathways, [42]. GRP75 a mitochondrial chaperon is an essential protein for mitochondria biogenesis by refolding and sorting mitochondrial proteins. Elevation of GRP75 is easily observed in various cancer cells, while knockdown of the protein induces mitochondrial dysfunc ...

prostate cancer cells [7] = settings: ref [28]; cited from earlier work
Description: as §3

[8] = target: bull frog GnRHR-II (bfGnRHR-II) (Aquarana catesbeiana, UniProt Q9DE60); test: Reporter gene assay (SRE-luc), antagonism of GnRH-II at bfGnRHR-II; type: cell-based; settings: CV-1 cells, GnRH-II 1 nM, antagonist 6 h, luciferase normalized to β-gal, at least three independent experiments
bull frog GnRHR-II (bfGnRHR-II), sequence (Q9DE60 entry or part of it): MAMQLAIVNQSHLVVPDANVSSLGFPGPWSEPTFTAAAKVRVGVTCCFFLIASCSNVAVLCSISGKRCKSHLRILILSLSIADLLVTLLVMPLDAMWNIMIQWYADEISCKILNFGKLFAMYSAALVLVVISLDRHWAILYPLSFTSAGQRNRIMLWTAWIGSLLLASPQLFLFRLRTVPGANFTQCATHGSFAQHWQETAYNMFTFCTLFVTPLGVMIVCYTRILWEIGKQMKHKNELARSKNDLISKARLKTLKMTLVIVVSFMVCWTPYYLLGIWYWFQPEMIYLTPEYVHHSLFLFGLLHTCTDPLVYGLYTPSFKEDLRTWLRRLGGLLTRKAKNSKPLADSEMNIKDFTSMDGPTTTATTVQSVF
Description: as §2

In the case of “FITC-conjugated GnRH-II: FITC-conjugated GnRH-II (QHWSHGWYPG; ends and bridges not checked; also: FITC-conjugated, site not given here; UniProt O43555 24-33, looked up)”, the “mitochondrial accumulation in presence of unlabeled GnRH-II” value (PC3 cells [1]) is given as “attenuated by unlabeled GnRH-II”.
For `CC(=O)N[C@H](Cc1ccc2ccccc2c1)C(=O)N[C@H](Cc1ccc(Cl)cc1)C(=O)N[C@H](Cc1cccnc1)C(=O)N[C@@H](CO)C(=O)N[C@@H](Cc1ccccc1)C(=O)N[C@H](CCCCN)C(=O)N[C@@H](Cc1c[nH]c2ccccc12)C(=O)N[C@@H](Cc1ccc(O)cc1)C(=O)N[C@@H](CCCNC(=N)N)C(=O)N[C@H](C)C(N)=O` [SN09-2, Ac-D-Nal(2)-D-phe(4Cl)-D-Pal(3)-Ser-Phe-D-Lys-Trp-Tyr-Arg-D-Ala-NH2] (Ac-[d2Nal][dPhe(4-Cl)][d3Pal]SF[dK]WYR[dA]-NH2), the “growth inhibition of DU145 cells” value (DU145 cells) was “≈ 50%”, the “growth inhibition of PC3 cells” value (PC3 cells [2]; 5% serum, 4 days) was 91% and the “growth inhibition of PC3 cells” value (PC3 cells [2]; 10% serum, 4 days) was 88%. The “growth inhibition of PC3 cells” value (PC3 cells [2]; higher serum concentrations, 4 days) was “more than 85%”, the “growth inhibition of PC3 cells” value (PC3 cells [2]; low serum concentrations (less than 2% FBS), within 4 days) was “more than 95%” and the “solubility in 5% DMA” value ([3]; 5% N,N′-dimethylacetamide (DMA) formulation) was “appeared well dissolved”. The “solubility in DMSO” value ([3]; DMSO, solvent for in vitro treatment) was “dissolved well in DMSO”, the pIC50 [4] was 5.72 and the “liver and kidney histopathology” value ([5]; after 25 days subcutaneous treatment) was “no histo-pathological abnormalities”. For the same molecule, the “serum alkaline phosphatase, aspartate aminotransferase, alanine aminotransferase, urea nitrogen, creatinine, total bilirubin” value ([5]; after 25 days subcutaneous treatment, data not shown) was “did not differ between vehicle and SN09-2-treated mice”, the “skin irritation / densely populated cells at the injection site” value ([5]; mice, several days after subcutaneous injection) was “no skin irritation or densely populated cells were detected” and the edema-like phenotype ([5]; mice, subcutaneous treatment) was “not observed”. For the same molecule, the “adverse effects to the animal” value ([5]; xenograft model) was “without any apparent adverse effects”.
In the case of “GnRH-II: the other type of GnRH, structurally conserved in evolution from fish to mammals (QHWSHGWYPG; ends and bridges not checked; UniProt O43555 24-33, looked up)”, the “inhibition of proliferation of prostate cancer cells” value (prostate cancer cells [6]; ref [26], [27]) is given as “inhibit the proliferation”, the “displacement of radiolabeled GnRH-II binding” value (prostate cancer cells [6]) is given as “displaced by unlabeled GnRH-II” and the laminin receptor expression (human T cells) is given as “stimulates laminin receptor expression”. The “inhibition of proliferation of ovarian cancer cells” value (ovarian cancer cells; ref [26], [27]) was “inhibit the proliferation” and the “anti-proliferative effect in ovarian cancer, versus GnRH-I” value (ovarian cancer cells; ref [33]) was “stronger anti-proliferative effect than that of GnRH-I”.
For “GnRH-I: gonadotropin-releasing hormone-I synthesized in the hypothalamus”, the “displacement of radiolabeled GnRH-II binding” value (prostate cancer cells [6]) is given as “not by GnRH-I”.
For “Ac-[d2Nal][dPhe(4-Cl)][d3Pal]SY[dCit]WYP[dA]-NH2 [Trp-1, GnRH-II antagonist of the authors' earlier report]”, the “inhibitory activity on tumor volume” value (PC3 xenograft tumor; 0.1 mg, PC3 xenograft, quoted comparison, ref [28]) is given as 60%, the “growth of tumor formed by implanted PC3 cells” value (PC3 xenograft tumor) is given as “inhibited growth of the tumor” and the “activation of the apoptotic machinery” value (caspase-3 (PC3 cells); previous results) is given as “could not trigger the activation of the apoptotic machinery”. The caspase-3 activation (caspase-3 (PC3 cells)) was “does not induce”, the “PC3 cell growth inhibition, dose response” value (PC3 cells [2]; different concentrations, 5% serum, 3 days, versus DMSO control) was “significantly attenuated cell growth in a dose-dependent manner” and the cytochrome c release (cytochrome c (PC3 cells)) was “does not induce”. The autophagic cell death (prostate cancer cells [7]) was “induces autophagic cell death”, the “antagonism of GnRH-II at gmGnRHR-II” value ([4]; CV-1 cells, SRE-luc reporter, GnRH-II 10 nM, antagonist 6 h, luciferase normalized to β-gal, at least three independent experiments) was “partial” and the “mitochondrial accumulation in presence of unlabeled GnRH-II” value (PC3 cells [1]) was “attenuated by unlabeled GnRH-II”. For the same molecule, the pIC50 [8] was 6.60.
In the case of cetrorelix, the “growth of tumor formed by implanted PC3 cells” value (PC3 xenograft tumor) is listed as “very weak effect on tumor growth” and the “block of GnRH-II-induced laminin receptor expression” value (human T cells) is listed as “not blocked”.
